The results in this text go back to ChEMBL document CHEMBL1145370, “Alpha-methylation at benzylic fragment of N-aryl-N'-benzyl ureas provides TRPV1 antagonists with better pharmacokinetic properties and higher efficacy in inflammatory pain model” (Bioorg Med Chem Lett, 2007).

The nature of data set [1]: Half life in rat at 10 umol/kg, iv. The following applies: in vivo. It is filed as ADME, organism-based.
Data set [2] can be described thus: Half life in dog at 10 umol/kg, iv. It is filed as ADME, organism-based, Canis lupus familiaris. The note with it: in vivo.
Data set [3] is described as follows: Volume of distribution in rat at 10 umol/kg, iv. It is filed as ADME, organism-based. The note with it: in vivo, read-out: Vbeta.
Data set [4] can be described thus: Volume of distribution in dog at 10 umol/kg, iv. It is filed as ADME, organism-based, Canis lupus familiaris. The note with it: in vivo, read-out: Vbeta.
Data set [5] in a line: Plasma clearance in rat at 10 umol/kg, iv. It is filed as ADME, organism-based.
Data set [6] is described as follows: Plasma clearance in dog at 10 umol/kg, iv. It is filed as ADME, organism-based, Canis lupus familiaris.
The nature of data set [7]: Bioavailability in dog at 10 umol/kg, po. It is filed as ADME, organism-based, Canis lupus familiaris. The note with it: in vivo.
The target in data set [8] is Transient receptor potential cation channel subfamily V member 1 (Homo sapiens, UniProt Q8NER1). Description: Antagonist activity at human TRPV1 by calcium influx assay. It is filed as functional.
The nature of data set [9]: Bioavailability in rat at 10 umol/kg, po. It is filed as ADME, organism-based. The following applies: in vivo.

Chain of Transient receptor potential cation channel subfamily V member 1 (Q8NER1 whole entry): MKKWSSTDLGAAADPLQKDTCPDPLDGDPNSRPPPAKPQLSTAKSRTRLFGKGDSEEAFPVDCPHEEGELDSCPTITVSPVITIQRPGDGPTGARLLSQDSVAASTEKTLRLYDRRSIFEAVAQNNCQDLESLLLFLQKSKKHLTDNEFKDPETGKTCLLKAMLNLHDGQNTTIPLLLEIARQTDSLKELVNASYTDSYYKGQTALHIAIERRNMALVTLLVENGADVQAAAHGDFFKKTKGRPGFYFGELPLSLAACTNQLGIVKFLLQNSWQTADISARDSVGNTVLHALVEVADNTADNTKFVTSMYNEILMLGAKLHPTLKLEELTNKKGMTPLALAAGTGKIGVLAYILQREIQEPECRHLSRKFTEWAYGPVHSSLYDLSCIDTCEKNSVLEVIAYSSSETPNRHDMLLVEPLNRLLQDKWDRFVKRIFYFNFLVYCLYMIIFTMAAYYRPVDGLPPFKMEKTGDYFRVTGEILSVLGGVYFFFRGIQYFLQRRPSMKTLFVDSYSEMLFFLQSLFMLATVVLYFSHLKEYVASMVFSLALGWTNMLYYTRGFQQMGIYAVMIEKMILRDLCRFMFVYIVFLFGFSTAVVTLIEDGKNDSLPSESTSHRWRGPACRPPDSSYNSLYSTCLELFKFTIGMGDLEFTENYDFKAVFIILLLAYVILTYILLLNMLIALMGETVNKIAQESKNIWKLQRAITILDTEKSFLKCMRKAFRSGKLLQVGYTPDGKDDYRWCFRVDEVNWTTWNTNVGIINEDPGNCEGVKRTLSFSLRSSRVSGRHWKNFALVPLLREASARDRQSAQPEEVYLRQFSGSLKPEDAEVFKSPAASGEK

As a reminder, the half-life is the time needed for the level to fall by half in the phase considered. For orientation: clearance means a measure of how efficiently the substance is removed, as volume per time. A higher clearance goes with a high capacity for elimination. The term bioavailability denotes dose-corrected exposure relative to a reference, in per cent. Take `O=C(NCc1ccc(C(F)(F)F)cc1)Nc1cccc2cnccc12`: the results for the half-life in data set [1] and in data set [2] were 0.6 h and 1 h, respectively. Further, the Vd in data set [3] was 0.6 L/kg; in data set [4], 0.5 L/kg. In addition, the clearance in data set [5] is 10 mL/min/kg; in data set [6], 6.67 mL/min/kg. This compound displayed a bioavailability in [7] of 32%. As a reminder, the IC50 is the concentration that inhibits the measured activity by half. Regarding `CC(NC(=O)Nc1cccc2cnccc12)c1ccc(C(C)(C)C)cc1` (stereo not given), in data set [8], the IC50 amounted to 24 nM. On the same count and under the same terms, then `CC(NC(=O)Nc1cccc2cnccc12)c1ccc(C(F)(F)F)c(F)c1` (stereo not given), with 19 nM; and `O=C(Nc1cccc2cnccc12)NC(c1ccccc1)c1ccc(C(F)(F)F)cc1` (stereo not given), with 147 nM.

With `O=C(Nc1cccc2cnccc12)NC(c1ccccc1)c1ccc(N2CCCCC2)cc1` (stereo not given), the IC50 in [8] amounted to 171 nM. As for `Cc1cc(C(C)(C)C)ccc1C(C)NC(=O)Nc1cccc2cnccc12` (stereo not given), the IC50 in data set [8] was 46 nM. The same measure, in the same setting: then `CCc1cc(C(C)(C)C)ccc1C(C)NC(=O)Nc1cccc2cnccc12` (stereo not given), with 20 nM; and `CC(NC(=O)Nc1cccc2cnccc12)c1ccc(C(C)(C)C)cc1C(C)(C)C` (stereo not given), with 17 nM; and `CCC(NC(=O)Nc1cccc2cnccc12)c1ccccc1` (stereo not given), with 2580 nM. Regarding `N#CCC(NC(=O)Nc1cccc2cnccc12)c1ccccc1` (stereo not given), the IC50 in data set [8] worked out at 15900 nM. Same read-out and setting: then `O=C(Nc1cccc2cnccc12)NC(c1ccc(C(F)(F)F)cc1)C1CC1` (stereo not given), with 149 nM. Take `O=C(Nc1cccc2cnccc12)NC(c1ccc(C(F)(F)F)cc1)C1CCCCC1` (stereo not given): the IC50 in data set [8] amounted to 287 nM. For `CC(C)(NC(=O)Nc1cccc2cnccc12)c1ccc(Cl)cc1`, the IC50 in data set [8] was 143 nM. On the same count and under the same terms, the same measure for `CC(C)(NC(=O)Nc1cccc2cnccc12)c1ccc(C(F)(F)F)cc1`: 94 nM. Take `C[C@@H](NC(=O)Nc1cccc2[nH]ncc12)c1ccc(C(F)(F)F)cc1`: the IC50 in [8] was 41 nM. The compound also had a half-life in [1] of 2.1 h. For the same compound, in data set [3], the Vd was 2.9 L/kg. The bioavailability in data set [9] came to 53%. `Cc1ccc([C@H](C)NC(=O)Nc2cccc3[nH]ncc23)cc1`: the IC50 in [8] was determined as 749 nM. As for `C[C@H](NC(=O)Nc1cccc2[nH]ncc12)c1cccc2ccccc12`, the IC50 in data set [8] came to 3750 nM.

Consider `CC(NC(=O)Nc1cccc2cnccc12)c1ccc(C(F)(F)F)cc1` (stereo not given), for which the IC50 in data set [8] is 22 nM. The half-life in data set [1] was 1.1 h; in [2], 1.6 h. Also, the Vd in [3] and in [4] was 1.1 L/kg throughout. In addition, the figures for the clearance in data set [5] and in [6] were 11.7 mL/min/kg and 8.33 mL/min/kg, respectively. For the same compound, the bioavailability in [9] is 47%; in data set [7] it was 98%. `CN(C)CC(NC(=O)Nc1cccc2cnccc12)c1ccccc1` (stereo not given): the IC50 in [8] amounted to 31000 nM. On the same count and under the same terms, then `O=C(Nc1cccc2cnccc12)NC(c1ccc(C(F)(F)F)cc1)C1CCCC1` (stereo not given), with 476 nM; and `C[C@H](NC(=O)Nc1cccc2[nH]ncc12)c1ccc(C(F)(F)F)cc1`, with 248 nM; and `C[C@@H](NC(=O)Nc1cccc2[nH]ncc12)c1cccc2ccccc12`, with 123 nM. The same measure, in the same setting: the same measure for `Cc1ccc([C@@H](C)NC(=O)Nc2cccc3[nH]ncc23)cc1`: 73 nM.

Take `CC(C)(C)c1ccc(C(NC(=O)Nc2cccc3cnccc23)c2ccccc2)cc1` (stereo not given): in [8], the IC50 stood at 125 nM. Same read-out and setting: the same measure for `O=C(Nc1cccc2cnccc12)NC(c1ccccc1)c1ccccc1`: 600 nM; for `CCC(NC(=O)Nc1cccc2cnccc12)c1ccc(C(F)(F)F)c(F)c1` (stereo not given): 109 nM.

Take `CC(NC(=O)Nc1cccc2cnccc12)c1ccc(Br)cc1` (stereo not given): in [8], the IC50 came out at 26 nM.

`CC(NC(=O)Nc1cccc2[nH]ncc12)c1ccc(C(F)(F)F)cc1` (racemic): the IC50 in data set [8] was 47 nM.
